Laboratory results published in patent US7491794B2, “Macrocyclic compounds as inhibitors of viral replication” (Intermune, Inc., priority 2003, dated 2009).
Where two headings read alike, the source gives them in different places.

Legend:
[1] = tested on: HCV sub-genomic replicon, GS4.3; experiment: Quantitation by ELISA of NPTII in the HCV sub-genomic replicon, GS4.3, Section B; format: cell-based; conditions: Hepatitis C virus; read-out: replicon EC50 value
In short: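 GS4.3 cells (HuH-7 carrying HCV 1377/NS3-3′ replicon) were treated 72 h at 37 °C with inhibitors in 3-fold dilutions, 1% DMSO, no G418. Lysate NPTII was measured by ELISA (TMB, 450 nm). Signal as % of DMSO control; EC50 from 4-parameter fit.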

[2] = Rat hepatocyte incubation assay (stability in vitro); format: in vitro ADME; conditions: rat hepatocytes
[3] = Dog hepatocyte incubation assay (stability in vitro); format: in vitro ADME; conditions: dog hepatocytes
[4] = Human hepatocyte incubation assay (stability in vitro); format: in vitro ADME; conditions: human hepatocytes
[5] = tested on: panel of other serine proteases; experiment: Selectivity against a panel of other serine proteases; format: biochemical
[6] = tested on: Cytochrome P450 isoforms; experiment: Inhibition of Cytochrome P450 isoforms; format: in vitro ADME; conditions: highest concentrations tested (10 μM)
[7] = biological target: hERG channel (Homo sapiens, UniProt Q12809); experiment: Inhibition of hERG channel activity; conditions: highest concentrations tested (10 μM)
Chain of hERG channel (Q12809 whole entry): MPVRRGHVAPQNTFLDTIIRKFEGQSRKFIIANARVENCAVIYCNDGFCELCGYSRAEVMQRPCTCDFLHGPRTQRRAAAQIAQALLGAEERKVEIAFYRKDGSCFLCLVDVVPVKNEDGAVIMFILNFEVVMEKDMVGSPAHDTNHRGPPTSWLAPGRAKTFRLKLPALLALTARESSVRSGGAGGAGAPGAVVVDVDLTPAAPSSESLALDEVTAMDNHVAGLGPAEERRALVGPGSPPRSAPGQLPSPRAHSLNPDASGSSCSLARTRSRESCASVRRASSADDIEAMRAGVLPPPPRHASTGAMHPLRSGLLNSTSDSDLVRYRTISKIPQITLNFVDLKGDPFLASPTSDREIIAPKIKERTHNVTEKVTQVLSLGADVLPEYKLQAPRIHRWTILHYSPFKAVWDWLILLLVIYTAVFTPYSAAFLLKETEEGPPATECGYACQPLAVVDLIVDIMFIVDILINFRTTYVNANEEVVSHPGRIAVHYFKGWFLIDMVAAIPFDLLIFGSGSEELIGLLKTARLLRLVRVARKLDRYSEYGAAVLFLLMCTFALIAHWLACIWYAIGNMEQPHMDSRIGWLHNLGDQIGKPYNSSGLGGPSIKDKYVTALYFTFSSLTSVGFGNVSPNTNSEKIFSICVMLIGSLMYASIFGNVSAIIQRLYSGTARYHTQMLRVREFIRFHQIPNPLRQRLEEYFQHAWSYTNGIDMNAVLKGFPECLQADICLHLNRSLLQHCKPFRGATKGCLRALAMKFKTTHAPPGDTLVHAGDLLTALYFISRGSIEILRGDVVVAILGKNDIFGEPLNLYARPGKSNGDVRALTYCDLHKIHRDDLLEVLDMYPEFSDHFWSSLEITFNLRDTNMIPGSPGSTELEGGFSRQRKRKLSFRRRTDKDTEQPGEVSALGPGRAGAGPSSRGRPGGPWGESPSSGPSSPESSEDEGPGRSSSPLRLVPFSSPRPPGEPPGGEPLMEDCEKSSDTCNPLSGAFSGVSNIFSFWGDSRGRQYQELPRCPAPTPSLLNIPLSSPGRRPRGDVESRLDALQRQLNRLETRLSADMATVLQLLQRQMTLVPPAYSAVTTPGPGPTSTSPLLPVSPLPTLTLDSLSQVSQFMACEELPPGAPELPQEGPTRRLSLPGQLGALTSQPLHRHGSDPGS

[8] = biological target: T1, NS3-NS4 protease (Hepatitis C virus genotype 1a, UniProt P27958); experiment: NS3-NS4 protease assay / NS3 inhibition assay, Section C; format: biochemical
T1 construct: Recombinant E. coli or Baculovirus full-length NS3 was diluted to 3.33 μM with assay buffer; made in house; host or cells: E. coli or baculovirus (BV) system
T1 sequence (P27958 1027-1657): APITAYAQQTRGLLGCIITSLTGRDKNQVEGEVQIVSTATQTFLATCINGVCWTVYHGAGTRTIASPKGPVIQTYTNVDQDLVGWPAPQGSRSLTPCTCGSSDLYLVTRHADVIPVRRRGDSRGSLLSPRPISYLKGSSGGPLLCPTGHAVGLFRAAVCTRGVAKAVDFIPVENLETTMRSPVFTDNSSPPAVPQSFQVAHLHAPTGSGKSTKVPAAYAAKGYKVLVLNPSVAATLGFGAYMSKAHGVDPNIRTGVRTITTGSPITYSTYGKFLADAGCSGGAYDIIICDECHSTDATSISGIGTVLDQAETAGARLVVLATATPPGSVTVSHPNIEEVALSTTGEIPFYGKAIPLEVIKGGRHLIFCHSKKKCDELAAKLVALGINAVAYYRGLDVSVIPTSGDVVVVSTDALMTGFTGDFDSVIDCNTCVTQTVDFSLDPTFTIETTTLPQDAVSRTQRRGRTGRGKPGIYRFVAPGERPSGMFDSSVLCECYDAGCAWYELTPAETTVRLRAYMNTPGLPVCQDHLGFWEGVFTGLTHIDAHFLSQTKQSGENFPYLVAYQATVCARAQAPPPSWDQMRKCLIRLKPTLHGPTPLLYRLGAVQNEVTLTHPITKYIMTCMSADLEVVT
In short: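 Full-length NS3 (E. coli, 2 nM, or Baculovirus, 3 nM, in assay) precomplexed with excess NS4A-2 peptide, pre-incubated with compound 10 minutes at room temperature, then RETS1 substrate added. Fluorescence (ex 335/em 495 nm) read kinetically over 30 minutes; IC50s from four-parameter fit converted to Ki via Ki=IC50/(1+[S]/Km).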

[9] = tested on: HCV sub-genomic replicon, GS4.3; experiment: Quantitation by ELISA of NPTII in the HCV sub-genomic replicon, GS4.3, Section C; format: cell-based
Text: Quantitation by ELISA of the selectable marker protein, Neomycin phosphotransferase II (NPTII) in the HCV Sub-Genomic Replicon, GS4.3
The HCV sub-genomic replicon (1377/NS3-3′, accession No. AJ242652), stably maintained in HuH-7 hepatoma cells, was created by Lohmann et al. Science 285: 110-113 (1999). The replicon-containing cell culture, designated GS4.3, was obtained from Dr. Christoph Seeger of the Institute for Cancer Research, Fox Chase Cancer Center, Philadelphia, Pa.
GS4.3 cells were maintained at 37° C., 5% CO2, in DMEM (Gibco 11965-092) supplemented with L-glutamine 200 mM (100×) (Gibco25030-081), non-essential amino acids (NEAA)(Biowhittaker 13-114E), heat-inactivated (HI) Fetal Bovine Serum(FBS)(Hyclone SH3007.03) and 750 μg/ml geneticin (G418)(Gibco 10131-035). Cells were sub-divided 1:3 or 4 every 2-3 days.
24 h prior to the assay, GS4.3 cells were collected, counted, and plated in 96-well plates (Costar 3585) at 7500 cells/well in 100 μl standard maintenance medium (above) and incubated in the conditions above. To initiate the assay, culture medium was removed, cells were washed once with PBS (Gibco 10010-023) and 90 μl Assay Medium (DMEM, L-glutamine, NEAA, 10% HI FBS, no G418) was added. Inhibitors were made as a 10× stock in Assay Medium, (3-fold dilutions from 10 μM to […] final concentration, final DMSO concentration 1%), 10 μl were added to duplicate wells, plates were rocked to mix, and incubated as above for 72 h.
An NPTII Elisa kit was obtained from AGDIA, Inc. (Compound direct ELISA test system for Neomycin Phosphotransferase II, PSP 73000/4800). Manufacturer's instructions were followed, with some modifications. 10×PEB-1 lysis buffer was made up to include 500 μM PMSF (Sigma P7626, 50 mM stock in isopropanol). After 72 h incubation, cells were washed once with PBS and 150 μl PEB-1 with PMSF was added per well. Plates were agitated vigorously for 15 minutes, room temperature, then frozen at −70° C. Plates were thawed, lysates were mixed thoroughly, and 100 μl were applied to an NPTII Elisa plate. A standard curve was made. Lysate from DMSO-treated control cells was pooled, serially diluted with PEB-1 with PMSF, and applied to duplicate wells of the ELISA plate, in a range of initial lysate amount of 150u1-2.5 ul. In addition, 100 μl buffer alone was applied in duplicate as a blank. Plates were sealed and gently agitated at room temperature for 2 h. Following capture incubation, the plates were washed 5×300 μl with PBS-T (0.5% Tween-20, PBS-T was supplied in the ELISA kit). For detection, a 1× dilution of enzyme conjugate diluent MRS-2 (5×) was made in PBS-T, into which 1:100 dilutions of enzyme conjugates A and B were added, as per instructions. Plates were resealed, and incubated with agitation, covered, room temperature, for 2 h. The washing was then repeated and 100 μl of room temperature TMB substrate was added. After approximately 30 minutes incubation (room temperature, agitation, covered), the reaction was stopped with 50 μl 3M sulfuric acid. Plates were read at 450 nm on a Molecular Devices Versamax plate reader.
Inhibitor effect was expressed as a percentage of DMSO-treated control signal, and inhibition curves were calculated using a 4-parameter equation: y=A+((B−A)/(1+((C/x)^D))), where C is half-maximal activity or EC50.

[10] = Hepatitis C virus, GS4.3 cells, 72 h incubation, read-out: EC50

Row | SMILES | IC50 ([8]; read-out: NS3-NS4 IC50) | EC50 [9, 10] | further results
1 | CC(C)(C)OC(=O)N[C@H]1CCCCCCC[C@@H]2C[C@@]2(C(=O)NS(=O)(=O)C2CC2)NC(=O)[C@@H]2C[C@@H](OC(=O)N3Cc4ccccc4C3)CN2C1=O [AR333833] | – | – | EC50 [1]: ~0.002 µM; stability in vitro in rat hepatocyte incubation assay [2]: exhibited stability; stability in vitro in dog hepatocyte incubation assay [3]: exhibited stability; stability in vitro in human hepatocyte incubation assay [4]: exhibited stability; selectivity against a panel of other serine proteases [5]: high degree of selectivity; inhibition of Cytochrome P450 isoforms [6]: no significant inhibition; inhibition of hERG channel activity [7]: no significant inhibition
2 | COc1ccc(NS(=O)(=O)NC(=O)[C@@]23C[C@H]2/C=C\CCCCC[C@H](NC(=O)OC(C)(C)C)C(=O)N2C[C@H](OC(=O)N4Cc5ccccc5C4)C[C@H]2C(=O)N3)cc1 [Compound 129, (1S,4R,6S,14S,18R)-1,3-Dihydro-isoindole-2-carboxylic acid 14-tert-butoxycarbonylamino-4-(4-methoxyphenylaminosulfonyl-aminocarbonyl)-2,15-dioxo-3,16-diaza-tricyclo[14.3.0.0^4,6]nonadec-7-en-18-yl ester] | < 0.1 µM | < 0.1 µM | –
3 | CN(C)S(=O)(=O)NC(=O)[C@@]12C[C@H]1C=CCCCCC[C@H](NC(=O)OC(C)(C)C)C(=O)N1C[C@H](OC(=O)N3Cc4ccccc4C3)C[C@H]1C(=O)N2 [Compound 101, (1S,4R,6S,14S,18R)-1,3-Dihydro-isoindole-2-carboxylic acid 14-tert-butoxycarbonylamino-4-(N,N-dimethylsulfonyl-aminocarbonyl)-2,15-dioxo-3,16-diaza-tricyclo[14.3.0.0^4,6]nonadec-7-en-18-yl ester] | < 0.1 µM | – | EC50 ([9]; GS4.3 cells, 72 h incubation, read-out: EC50): < 0.1 µM
4 | CC(C)(C)OC(=O)N[C@H]1CCCCC/C=C\[C@@H]2C[C@@]2(C(=O)NS(N)(=O)=O)NC(=O)[C@@H]2C[C@@H](OC(=O)N3Cc4ccccc4C3)CN2C1=O [Compound 122, (1S,4R,6S,14S,18R)-1,3-Dihydro-isoindole-2-carboxylic acid 14-tert-butoxycarbonylamino-4-(aminosulfonyl-aminocarbonyl)-2,15-dioxo-3,16-diaza-tricyclo[14.3.0.0^4,6]nonadec-7-en-18-yl ester] | < 0.1 µM | < 0.1 µM | –
5 | CC(C)(C)OC(=O)N[C@H]1CCCCC/C=C\[C@@H]2C[C@@]2(C(=O)NS(=O)(=O)Nc2ccccc2)NC(=O)[C@@H]2C[C@@H](OC(=O)N3Cc4ccccc4C3)CN2C1=O [Compound 127, (1S,4R,6S,14S,18R)-1,3-Dihydro-isoindole-2-carboxylic acid 14-tert-butoxycarbonylamino-4-(phenylaminosulfonyl-aminocarbonyl)-2,15-dioxo-3,16-diaza-tricyclo[14.3.0.0^4,6]nonadec-7-en-18-yl ester] | < 0.1 µM | < 0.1 µM | –
6 | CC(C)(C)OC(=O)N[C@H]1CCCCC/C=C\[C@@H]2C[C@@]2(C(=O)NS(=O)(=O)N(CCC#N)C2CC2)NC(=O)[C@@H]2C[C@@H](OC(=O)N3Cc4ccccc4C3)CN2C1=O [Compound 125, (1S,4R,6S,14S,18R)-1,3-Dihydro-isoindole-2-carboxylic acid 14-tert-butoxycarbonylamino-4-(2-cyanoethyl(cyclopropyl)aminosulfonyl-aminocarbonyl)-2,15-dioxo-3,16-diaza-tricyclo[14.3.0.0^4,6]nonadec-7-en-18-yl ester] | < 0.1 µM | < 0.1 µM | –
7 | CC(C)(C)OC(=O)N[C@H]1CCCCC/C=C\[C@@H]2C[C@@]2(C(=O)NS(=O)(=O)NC2CCCC2)NC(=O)[C@@H]2C[C@@H](OC(=O)N3Cc4ccccc4C3)CN2C1=O [Compound 134, (1S,4R,6S,14S,18R)-1,3-Dihydro-isoindole-2-carboxylic acid 14-tert-butoxycarbonylamino-4-(cyclopentylaminosulfonyl-aminocarbonyl)-2,15-dioxo-3,16-diaza-tricyclo[14.3.0.0^4,6]nonadec-7-en-18-yl ester] | < 0.1 µM | < 0.1 µM | –
8 | CC(C)(C)OC(=O)N[C@H]1CCCCC/C=C\[C@@H]2C[C@@]2(C(=O)NS(=O)(=O)Nc2ccc(Cl)cc2)NC(=O)[C@@H]2C[C@@H](OC(=O)N3Cc4ccccc4C3)CN2C1=O [Compound 128, (1S,4R,6S,14S,18R)-1,3-Dihydro-isoindole-2-carboxylic acid 14-tert-butoxycarbonylamino-4-(4-chlorophenylaminosulfonyl-aminocarbonyl)-2,15-dioxo-3,16-diaza-tricyclo[14.3.0.0^4,6]nonadec-7-en-18-yl ester] | < 0.1 µM | < 0.1 µM | –
9 | CC(C)(C)OC(=O)N[C@H]1CCCCC/C=C\[C@@H]2C[C@@]2(C(=O)NS(=O)(=O)N2CCCC2)NC(=O)[C@@H]2C[C@@H](OC(=O)N3Cc4ccccc4C3)CN2C1=O [Compound 103, (1S,4R,6S,14S,18R)-1,3-Dihydro-isoindole-2-carboxylic acid 14-tert-butoxycarbonylamino-4-(pyrrolidinosulfonyl-aminocarbonyl)-2,15-dioxo-3,16-diaza-tricyclo[14.3.0.0^4,6]nonadec-7-en-18-yl ester] | < 0.1 µM | < 0.1 µM | –
10 | CC(C)(C)OC(=O)N[C@H]1CCCCC/C=C\[C@@H]2C[C@@]2(C(=O)NS(=O)(=O)N2CCN(C(=O)OCC[Si](C)(C)C)CC2)NC(=O)[C@@H]2C[C@@H](OC(=O)N3Cc4ccccc4C3)CN2C1=O [Compound 119, (1S,4R,6S,14S,18R)-1,3-Dihydro-isoindole-2-carboxylic acid 14-tert-butoxycarbonylamino-4-(4-(2-trimethylsilylethoxycarbonyl)piperazine-1-sulfonyl-aminocarbonyl)-2,15-dioxo-3,16-diaza-tricyclo[14.3.0.0^4,6]nonadec-7-en-18-yl ester] | – | – | IC50 [8]: < 0.1 µM; EC50 ([9]; Hepatitis C virus, 72 h): < 0.1 µM
11 | CN(C)S(=O)(=O)NC(=O)[C@@]12C[C@H]1/C=C\CCCCC[C@H](NC(=O)OC(C)(C)C)C(=O)N1C[C@H](OC(=O)N3CCc4ccccc4C3CN3CCCCC3)C[C@H]1C(=O)N2 (stereo partly drawn) [Compound 107, (1S,4R,6S,14S,18R)-1-Piperidin-1-ylmethyl-3,4-dihydro-1H-isoquinoline-2-carboxylic acid 14-tert-butoxycarbonylamino-2,15-dioxo-4-(N,N-dimethyl-sulfonylaminocarbonyl)-3,16-diaza-tricyclo[14.3.0.0^4,6]nonadec-7-en-18-yl ester] | < 0.1 µM | < 0.1 µM | –
